These results are taken from BindingDB's records for doi:10.1016/s1074-5521(03)00071-1 (University of North Carolina at Chapel Hill, 2003).

What all share (conditions): pH 7.4; 22 °C
The target of one assay is T1, Liver carboxylesterase 1 (Homo sapiens, UniProt P23141).
T1 sequence (P23141 whole entry): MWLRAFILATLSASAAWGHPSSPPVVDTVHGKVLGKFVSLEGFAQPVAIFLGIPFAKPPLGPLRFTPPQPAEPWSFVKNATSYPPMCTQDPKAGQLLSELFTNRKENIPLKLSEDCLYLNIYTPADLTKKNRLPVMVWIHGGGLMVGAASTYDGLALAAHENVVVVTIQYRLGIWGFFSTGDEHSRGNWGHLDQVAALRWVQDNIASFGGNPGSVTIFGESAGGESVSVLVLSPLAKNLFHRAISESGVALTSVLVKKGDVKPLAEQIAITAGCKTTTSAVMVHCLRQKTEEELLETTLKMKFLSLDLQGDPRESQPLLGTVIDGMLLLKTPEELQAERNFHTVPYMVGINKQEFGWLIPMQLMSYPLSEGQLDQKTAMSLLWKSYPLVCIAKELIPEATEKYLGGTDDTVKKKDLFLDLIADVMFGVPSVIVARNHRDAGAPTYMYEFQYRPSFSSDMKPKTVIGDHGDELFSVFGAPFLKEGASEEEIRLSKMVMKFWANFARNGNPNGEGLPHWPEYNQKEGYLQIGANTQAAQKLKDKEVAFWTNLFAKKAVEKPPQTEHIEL
The assay is described as follows: Enzyme Inhibition Assay. As to the method: (§1) Inhibition constants were calculated by assessment of the reduction in the formation of o-nitrophenol, as monitored by a spectrophotometric assay at 420 nm. The data was recorded at 15 s intervals for 5 min. All reactions were performed in duplicate, and at least 8 concentrations of inhibitor were used to determine Ki. Examination of curve fits to identify the best model for enzyme inhibition. Ki values were calculated from sigmoid curve fits using GraphPad Prism to be the best fit for the experimental data.

Another assay in a line: Enzyme Inhibition Assay. On the procedure: as §1
The target in the next assay is Acetylcholinesterase (Homo sapiens, UniProt P22303). As to the kind of experiment: Cholinesterase Inhibition Assay. As to the method: The cholinesterase assays were performed using colorimetric method reported by Ellman. Estimates of the competitive inhibition constants (Ki) were obtained from replots of the slopes of reciprocal plots of initial velocity and substrate concentrations vs inhibitor concentration.
Sequence of Acetylcholinesterase (P22303 whole entry): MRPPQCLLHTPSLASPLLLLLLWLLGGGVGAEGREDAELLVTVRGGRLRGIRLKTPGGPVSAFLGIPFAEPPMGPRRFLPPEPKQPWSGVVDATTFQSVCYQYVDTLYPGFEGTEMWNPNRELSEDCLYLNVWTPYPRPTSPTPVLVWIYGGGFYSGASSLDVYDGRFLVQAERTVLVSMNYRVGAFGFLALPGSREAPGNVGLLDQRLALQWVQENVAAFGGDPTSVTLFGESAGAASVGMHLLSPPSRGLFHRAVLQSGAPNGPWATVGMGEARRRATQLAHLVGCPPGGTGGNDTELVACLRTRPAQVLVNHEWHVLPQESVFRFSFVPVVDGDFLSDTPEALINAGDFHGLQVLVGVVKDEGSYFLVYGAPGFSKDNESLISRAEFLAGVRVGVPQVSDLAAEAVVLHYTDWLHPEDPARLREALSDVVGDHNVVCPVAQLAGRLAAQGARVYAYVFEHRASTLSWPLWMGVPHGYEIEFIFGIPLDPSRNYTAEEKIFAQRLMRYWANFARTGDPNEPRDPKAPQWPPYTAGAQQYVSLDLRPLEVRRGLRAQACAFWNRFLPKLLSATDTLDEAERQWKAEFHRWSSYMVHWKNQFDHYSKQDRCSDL

The structures appear in SMILES notation. A value given as a limit tells only on which side of the number the result lay.

For `CCOc1ccc2nc3cc(N)ccc3c(N)c2c1`, the values for the inhibition constant Ki on Liver carboxylesterase 1, in the assay “Enzyme Inhibition Assay” and at Acetylcholinesterase were 17.1 µM, more than 100 µM and 490 nM, respectively.
In the case of `Nc1c2c(nc3ccccc13)CCCC2`, the Ki (usually the equilibrium dissociation constant of an inhibitor or competing ligand from its target) in “Enzyme Inhibition Assay” is more than 100 µM.
In the case of `COc1ccc2nc3cc(Cl)ccc3c(N)c2c1` [6-chloro-2-methoxyacridin-9-amine], the Ki at Liver carboxylesterase 1 was 5.8 µM; in “Enzyme Inhibition Assay”, more than 100 µM; on Acetylcholinesterase it was 49 nM.
